Here are results for 8 molecules from US20100222426A1, “Anti-Bacterial Agents” (priority 2007, published 2010).

One data set relates to S. aureus RN4220. In words: MIC assay (MHB microtitre, MTT). Particulars: Staphylococcus aureus. In kind it is cell-based. On the procedure:
Bacteria were cultured on nutrient agar (Oxoid) and incubated for 24 h at 37 ° C. prior to MIC determination. […] An inoculum density of 5×10^5 cfu of S. aureus was prepared in normal saline (9 g/l) by comparison with a 0.5 MacFarland turbidity standard. The inoculum (125 μl) was added to all wells and the microtitre plate was incubated at 37° C. for 18 h. For MIC determination, 20 μl of a 5 mg/ml methanolic solution of 3-[4,5-dimethylthiazol-2-yl]-2,5-diphenyltetrazolium bromide (MTT; Sigma) was added to each of the wells and incubated for 20 min. Bacterial growth was indicated by a colour change from yellow to dark blue. The MIC was recorded as the lowest concentration at which no growth was observed.

A further data set has as its system S. aureus EMRSA16. In words: MIC assay (MHB microtitre, MTT). In kind it is cell-based. Particulars: Staphylococcus aureus.
Another data set deals with S. aureus EMRSA15. The data set can be described thus: MIC assay (MHB microtitre, MTT). Particulars: Staphylococcus aureus. Type of data set: cell-based.
In a further data set the test system is M. fortuitum ATCC6841. The data set can be described thus: MIC assay (MHB microtitre, MTT). Particulars: Mycolicibacterium fortuitum. In kind it is cell-based.
A further data set relates to M. smegmatis MC2 2700. In words: MIC assay (MHB microtitre, MTT). Type of data set: cell-based. The settings on record: Mycolicibacterium smegmatis, MC22700.
The next data set relates to M. smegmatis ATCC14468. The data set can be described thus: MIC assay (MHB microtitre, MTT). In kind it is cell-based. The settings on record: Mycolicibacterium smegmatis.
In a further data set the test system is M. phlei ATCC11758. In words: MIC assay (MHB microtitre, MTT). Type of data set: cell-based. The settings on record: Mycolicibacterium phlei.
Data set [1] has as its system panel of multidrug-resistant strains of Staphylococcus aureus. Particulars: inventors' 2006 poster; cited from earlier work.
For another data set, the system named is P. aeruginosa K1119. The data set can be described thus: MIC assay (MHB microtitre, MTT). In kind it is cell-based. Particulars: Pseudomonas aeruginosa.
The next data set relates to P. aeruginosa K767. In words: MIC assay (MHB microtitre, MTT). In kind it is cell-based. The settings on record: Pseudomonas aeruginosa.
In a further data set the test system is S. aureus XU212. In words: microbe, parasite or virus in culture. The settings on record: Staphylococcus aureus. Type of data set: cell-based.
The test system of the next data set is Group A Streptococcus. In words: MIC on IsoSensitest agar / broth, clinical isolates. In kind it is cell-based, S. pyogenes. The settings on record: in broth and agar, read-out: minimum inhibitory concentration. On the procedure: (§1) Compound 7 was tested using bacteria which were recent clinical isolates, or were standard reference controls. The clinical isolates were selected to represent important resistant phenotypes currently prevalent in the UK and worldwide. They included (i) methicillin-resistant Staphylococcus aureus (MRSA), specifically the epidemic (E)MRSA-15 and 16 strains dominant in the UK; (ii) methicillin-resistant coagulase negative staphylococci (i.e. S. epidermidis, S. haemolyticus); (iii) vancomycin-resistant as well as susceptible Enterococcus faecalis and E. faecium; (iv) penicillin-resistant and—susceptible Streptococcus pneumoniae; (v) group A streptococci (=S. pyogenes, which remain universally susceptible to penicillin) and (vi) Clostridium difficile.
(§2) MICs were determined on IsoSensitest agar (ISA) (method of British Society for Antimicrobial Chemotherapy, http://www.bsac.org.uk) or by microdilution in IsoSensitest Broth (ISB). Both media were from Oxoid, Basingstoke, Hants. Plates were variously incubated, at 35-37° C., in air, air enriched with 5% CO2 or under anaerobic conditions.

Data set [2] has as its system methicillin-sensitive coagulase-negative Staphylococcus haemolyticus. The description is as above. In kind it is cell-based. Particulars: in broth and agar, methicillin-sensitive S. haemolyticus, read-out: minimum inhibitory concentration. On the procedure: as §1, §2
Data set [3] has as its system penicillin-resistant and penicillin-sensitive Streptococcus pneumoniae. The data set is described as above. Type of data set: cell-based. The settings on record: in broth and agar, penicillin-resistant and -sensitive S. pneumoniae, read-out: minimum inhibitory concentration. How it is done:
as §1, §2

Data set [4] has as its system methicillin-resistant coagulase-negative Staphylococcus epidermidis. The data set is described as above. Type of data set: cell-based. Particulars: in broth and agar, methicillin-resistant S. epidermidis, read-out: minimum inhibitory concentration. How it is done:
as §1, §2

In data set [5] the test system is methicillin-sensitive Staphylococcus aureus. Described as above. Type of data set: cell-based. Particulars: in broth and agar, methicillin-sensitive S. aureus, read-out: minimum inhibitory concentration. On the procedure: as §1, §2
Data set [6] concerns epidemic methicillin-resistant Staphylococcus aureus 15 and 16. The data set is described as above. Type of data set: cell-based. Particulars: in broth and agar, EMRSA-15 and 16 clinical isolates, read-out: minimum inhibitory concentration. On the procedure:
as §1, §2

Data set [7] deals with methicillin-sensitive coagulase-negative Staphylococcus epidermidis. Described as above. Type of data set: cell-based. The settings on record: in broth and agar, methicillin-sensitive S. epidermidis, read-out: minimum inhibitory concentration. How it is done: as §1, §2
Data set [8] deals with vancomycin-resistant and vancomycin-sensitive Enterococcus faecium. The data set is described as above. In kind it is cell-based. The settings on record: in broth and agar, vancomycin-resistant and -sensitive E. faecium, read-out: minimum inhibitory concentration. How it is done:
as §1, §2

Data set [9] deals with vancomycin-resistant and vancomycin-sensitive Enterococcus faecalis. Described as above. In kind it is cell-based. The settings on record: in broth and agar, vancomycin-resistant and -sensitive E. faecalis, read-out: minimum inhibitory concentration. On the procedure: as §1, §2
The next data set deals with S. typhimurium L354. In words: MIC assay (MHB microtitre, MTT). Type of data set: cell-based. Particulars: Salmonella enterica.
The subject of a further data set is S. aureus ATCC25923. The data set can be described thus: MIC assay (MHB microtitre, MTT). Type of data set: cell-based. Particulars: Staphylococcus aureus.
The subject of the next data set is S. aureus SA1199B. In words: MIC assay (MHB microtitre, MTT). Type of data set: cell-based. The settings on record: Staphylococcus aureus.
A further data set concerns S. typhimurium L10. The data set can be described thus: MIC assay (MHB microtitre, MTT). Type of data set: cell-based. Particulars: Salmonella enterica.
In data set [10] the test system is NCTC6571 Staphylococcus aureus. The data set can be described thus: MIC on IsoSensitest agar / broth, standard laboratory strain. In kind it is cell-based. Particulars: in broth and agar, read-out: minimum inhibitory concentration. How it is done: as §1, §2
The next data set concerns Streptococcus pneumoniae. Described as above. In kind it is cell-based. Particulars: ATCC29212; in broth and agar; Streptococcus pneumoniae ATCC 29212; read-out: minimum inhibitory concentration. How it is done:
as §1, §2

Data set [11] relates to Enterococcus faecalis ATCC29212. The description is as above. Type of data set: cell-based. Particulars: in broth and agar, read-out: minimum inhibitory concentration. How it is done: as §1, §2
Data set [12] has as its system MRSA and penicillin-resistant Staphylococcus aureus. The settings on record: cited from earlier work.
For data set [13] the following is noted: has to be stabilised as a salt; cited from earlier work.

Molecules are shown by their SMILES. Converted amounts (≈) assume the structure as drawn. Like-named read-outs stand apart in the source and are kept apart here.

For `CC[C@H]1OC(=O)[C@H](C)[C@@H](O[C@H]2C[C@@](C)(OC)[C@@H](O)[C@H](C)O2)[C@H](C)[C@@H](O[C@@H]2O[C@H](C)C[C@H](N(C)C)[C@H]2O)[C@](C)(O)C[C@@H](C)C(=O)[C@H](C)[C@@H](O)[C@]1(C)O` [Erythromycin, erythromycin, reference compound], the MIC against S. aureus RN4220 was 128 µg/mL (≈ 174 µM).
Regarding `Cc1onc(-c2ccccc2)c1C(=O)N[C@@H]1C(=O)N2[C@@H]1SC(C)(C)[C@@H]2C(=O)O` [Oxacillin, reference compound], the values for the MIC with S. aureus EMRSA16 and in the data set on S. aureus EMRSA15 were 512 µg/mL (≈ 1280 µM) and 16 µg/mL (≈ 39.9 µM), respectively.
Regarding `CC[C@@H](CO)NCCN[C@@H](CC)CO` [Ethambutol], the MIC with M. fortuitum ATCC6841, in the data set on M. smegmatis MC2 2700, against M. smegmatis ATCC14468 and against M. phlei ATCC11758 was 0.5 µg/mL (≈ 2.45 µM) throughout.
In the case of `O=c1c2cc(O)ccc2oc2cccc(O)c12` [1,7-dihydroxyxanthone], the minimum inhibitory concentration in [1] was 128 to 256 µg/mL.
For `CCC(C)C(=O)c1c(O)cc(O)cc1OC/C=C(\C)CCC=C(C)C` (centres unmarked) [Compound 7], the MIC with P. aeruginosa K1119 is > 512 µg/mL; against M. fortuitum ATCC6841, 8 µg/mL (≈ 23.1 µM); against P. aeruginosa K767 (K767) it was > 512 µg/mL; against S. aureus XU212, 1 µg/mL (≈ 2.89 µM); with S. aureus RN4220, 1 µg/mL (≈ 2.89 µM); in the data set on Group A Streptococcus, 4 µg/mL (≈ 11.5 µM). In addition, the MIC was 16 µg/mL (≈ 46.2 µM) in [2]; 2 to 4 µg/mL (≈ 5.77 to 11.5 µM) in data set [3]; 2 to 8 µg/mL (≈ 5.77 to 23.1 µM) in [4]; 2 to 8 µg/mL (≈ 5.77 to 23.1 µM) in data set [5]; 2 to 4 µg/mL (≈ 5.77 to 11.5 µM) in data set [6]; 2 to 4 µg/mL (≈ 5.77 to 11.5 µM) in data set [7]. In addition, the MIC in data set [8] is 2 to 4 µg/mL (≈ 5.77 to 11.5 µM); in [9], 4 µg/mL (≈ 11.5 µM); against M. smegmatis MC2 2700 it was 4 µg/mL (≈ 11.5 µM); in the data set on M. smegmatis ATCC14468, 4 µg/mL (≈ 11.5 µM); against S. typhimurium L354, > 512 µg/mL; in the data set on M. phlei ATCC11758, 4 µg/mL (≈ 11.5 µM). Moreover, the MIC with S. aureus EMRSA16 is 1 µg/mL (≈ 2.89 µM); against S. aureus ATCC25923, 1 µg/mL (≈ 2.89 µM); in the data set on S. aureus SA1199B, 1 µg/mL (≈ 2.89 µM); in the data set on S. typhimurium L10, > 512 µg/mL; against S. aureus EMRSA15, 0.5 µg/mL (≈ 1.44 µM); in data set [10] it was 4 µg/mL (≈ 11.5 µM). Also, the MIC (with Streptococcus pneumoniae; in data set [11]) was 4 µg/mL (≈ 11.5 µM) in each case.
With `CC(C)=CCC[C@]1(C)[C@@H](CC=C(C)C)C[C@@]2(CC=C(C)C)C(=O)[C@]1(C(=O)C(C)C)C(=O)C(CC=C(C)C)=C2O` [Hyperforin], in [12], the “Minimum Inhibitory Concentration (MIC)” value was 0.1 to 0.5 µg/mL. In addition, the stability result in data set [13] is on record as “unstable”.
Take `CCn1cc(C(=O)O)c(=O)c2cc(F)c(N3CCNCC3)cc21` [Norfloxacin, norfloxacin, reference compound]: the MIC with P. aeruginosa K1119 was 2 µg/mL (≈ 6.26 µM); in the data set with P. aeruginosa K767 (P. aeruginosa K767, read-out: MIC), 2 µg/mL (≈ 6.26 µM); against S. aureus ATCC25923, 1 µg/mL (≈ 3.13 µM); in the data set on S. aureus SA1199B it was 32 µg/mL (≈ 100 µM).
`NNC(=O)c1ccncc1` [Isoniazid]: the MIC against M. fortuitum ATCC6841 stood at 4 µg/mL (≈ 29.2 µM); against M. smegmatis MC2 2700 it was 2 µg/mL (≈ 14.6 µM); with M. smegmatis ATCC14468, 2 µg/mL (≈ 14.6 µM); against M. phlei ATCC11758 it was 2 µg/mL (≈ 14.6 µM).
